From ChEMBL document CHEMBL1201862, “PubChem BioAssay data set” (2004)
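Interpolation was linear, between the two tested concentrations surrounding the appropriate level; five concentrations were tested over 48 hours in 96-well plates. GI50 = concentration required for 50% inhibition of growth.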 The source made the active and inactive calls. No stated cut-off is given here; in the data, active = GI50 up to about 1.1 µM and inactive = higher.

How the values were obtained:
Experiment in all cases: DTP human tumour cell line panel, 48 h
KM12 = test system: KM12
SF-268 = test system: SF-268
HCC 2998 = test system: HCC 2998
UO-31 = test system: UO-31
BT-549 = test system: BT-549
NCI/ADR-RES = test system: NCI/ADR-RES
OVCAR-5 = test system: OVCAR-5
A549 = test system: A549
M14 = test system: M14
OVCAR-3 = test system: OVCAR-3
HL-60 = test system: HL-60
SK-MEL-28 = test system: SK-MEL-28
SW-620 = test system: SW-620
HOP-92 = test system: HOP-92
HOP-62 = test system: HOP-62
A498 = test system: A498
HT-29 = test system: HT-29
CCRF-CEM = test system: CCRF-CEM
TK-10 = test system: TK-10
EKVX = test system: EKVX
UACC-62 = test system: UACC-62
SK-OV-3 = test system: SK-OV-3
IGROV-1 = test system: IGROV-1
NCI-H522 = test system: NCI-H522
OVCAR-4 = test system: OVCAR-4
NCI-H460 = test system: NCI-H460
LOX IMVI = test system: LOX IMVI
Hs-578T = test system: Hs-578T
HCT-116 = test system: HCT-116
COLO 205 = test system: COLO 205
SK-MEL-2 = test system: SK-MEL-2
SR = test system: SR
MOLT-4 = test system: MOLT-4
NCI-H23 = test system: NCI-H23
T47D = test system: T47D
SNB-75 = test system: SNB-75
PC-3 = test system: PC-3
MDA-MB-231 = test system: MDA-MB-231
SF-539 = test system: SF-539
786-0 = test system: 786-0
DU-145 = test system: DU-145
ACHN = test system: ACHN
UACC-257 = test system: UACC-257
NCI-H226 = test system: NCI-H226
SNB-19 = test system: SNB-19
HCT-15 = test system: HCT-15
MCF7 = test system: MCF7
SF-295 = test system: SF-295
U-251 = test system: U-251
OVCAR-8 = test system: OVCAR-8
RPMI-8226 = test system: RPMI-8226
CAKI-1 = test system: CAKI-1
SN12C = test system: SN12C
SK-MEL-5 = test system: SK-MEL-5

Measured: GI50

COc1ccc2c(=O)c(-c3cc4c(cc3OC)OCO4)coc2c1
> 100 µM: HCT-15
inactive: KM12 > 100 µM | SF-268 72.8 µM | HCC 2998 > 100 µM | UO-31 > 100 µM | BT-549 > 100 µM | NCI/ADR-RES > 100 µM | OVCAR-5 > 100 µM | A549 > 100 µM | M14 > 100 µM | OVCAR-3 > 100 µM | HL-60 > 100 µM | SK-MEL-28 > 100 µM | SW-620 > 100 µM | HOP-92 32.9 µM | HOP-62 41.9 µM | A498 > 100 µM | HT-29 > 100 µM | CCRF-CEM > 100 µM | TK-10 56.1 µM | EKVX > 100 µM | UACC-62 > 100 µM | SK-OV-3 > 100 µM | IGROV-1 58.9 µM | NCI-H522 > 100 µM | OVCAR-4 > 100 µM | NCI-H460 > 100 µM | LOX IMVI > 100 µM | Hs-578T > 100 µM | HCT-116 > 100 µM | COLO 205 > 100 µM | SK-MEL-2 > 100 µM | SR > 100 µM | MOLT-4 > 100 µM | NCI-H23 > 100 µM | T47D > 100 µM | SNB-75 93.3 µM | PC-3 > 100 µM | MDA-MB-231 61.5 µM | SF-539 > 100 µM | 786-0 60.1 µM | DU-145 > 100 µM | ACHN 43.7 µM | UACC-257 > 100 µM | NCI-H226 > 100 µM | SNB-19 52 µM | MCF7 97.3 µM | SF-295 37.7 µM | U-251 59.2 µM | OVCAR-8 55.2 µM | RPMI-8226 > 100 µM | CAKI-1 51.8 µM | SN12C > 100 µM | SK-MEL-5 > 100 µM
